In patent US12655160B2, “KRAS G12D inhibitors” (Mirati Therapeutics, Inc., priority 2020, dated 2026):

How the values were obtained:
KRas G12D = KRas G12D (Homo sapiens, UniProt P01116, G12D); assay: KRas G12D Binding Assay (TR-FRET displacement of labeled tracer); parameters: corresponding to amino acids 1:169, produced at Array BioPharma Inc; biotin (biotinylated); conditions: TR-FRET displacement of Cy5 labelled tracer, Biotinylated GDP-loaded KRAS G12D (amino acids 1:169), 60 minute incubation at 22° C.
Procedure: This Example illustrates that exemplary compounds of the present invention bind to KRas G12D and are capable of displacing a labeled tracer ligand occupying the KRas G12D binding site. The ability of a compound to bind to KRAS G12D was measured using a TR-FRET displacement assay. Biotinylated GDP-loaded recombinant human KRAS G12D (corresponding to amino acids 1:169, produced at Array BioPharma Inc.) was incubated with a custom-made Cy5 labelled tracer, europium labelled streptavidin and compound (2% DMSO final) in buffer (50 mM HEPES [pH 7.5], 5 mM MgCl2, 0.005% Tween-20 & 1 mM DTT). After a 60 minute incubation at 22° C., the reaction was measured using a PerkinElmer EnVision multimode plate reader via TR-FRET dual wavelength detection, and the percent of control (POC) calculated using a ratiometric emission factor. […] The POC values were fit to a 4-parameter logistic curve and the IC50 value was determined as the concentration where the curve crosses 50 POC.

[1] = tested on: KRas G12D-mediated Phosphorylation of ERK; assay: Inhibition of KRas G12D-mediated Phosphorylation of ERK in AGS cells; format: cell-based; conditions: Homo sapiens; AGS cells expressing G12D, 3 hours, phospho-ERK signal normalized to GAPDH; read-out: IC50
Procedure: AGS cells (ATCC CRL-1739) expressing G12D were grown in DMEM medium supplemented with 10% fetal bovine serum, 10 mM HEPES, and Penicillin/Streptomycin. Cells were plated in tissue culture treated 96 well plates at a density of 40,000 cells/well and allowed to attach for 12-14 hours. Diluted compounds were then added in a final concentration of 0.5% DMSO. After 3 hours, the medium was removed, 150 μl of 4.0% formaldehyde was added and the plates incubated at room temperature for 20 minutes. The plates were washed with PBS, and permeabilized with 150 μL of ice cold 100% methanol for 10 minutes. Non-specific antibody binding to the plates was blocked using 100 μL Licor blocking buffer (Li-Cor Biotechnology, Lincoln NE) for 1 hour at room temperature.
The amount of phospho-ERK was determined using an antibody specific for the phosphorylated form of ERK and compared to the amount of GAPDH. Primary antibodies used for the detection were added as follows: Phospho-ERK(Cell Signaling cs-9101) diluted 1:500 and GAPDH (Millipore MAB374) diluted 1:5000 in Licor block+0.05% Tween 20. The plates were incubated for 2 hours at room temperature. The plates were washed with PBS+0.05% Tween 20.
Secondary antibodies used to visualize primary antibodies were added as follows: Anti-rabbit-680 diluted 1:1000 and Anti-mouse-800 diluted 1:1000 both in Licor block+0.05% Tween20, and were incubated for 1 hour at room temperature. The plates were washed with PBS+0.05% Tween 20. A 100 μl aliquot of PBS was added to each well and the plates were read on a Li-Cor Odyssey CLX plate reader.
The phospho-ERK(Thr202/Tyr204 signal was normalized to the GAPDH signal for each well and percent of DMSO control values were calculated. IC50 values were generated using a 4-parameter fit of the dose response curve

Sequence of KRas G12D (P01116 1-169 isoform P01116-2 G12D): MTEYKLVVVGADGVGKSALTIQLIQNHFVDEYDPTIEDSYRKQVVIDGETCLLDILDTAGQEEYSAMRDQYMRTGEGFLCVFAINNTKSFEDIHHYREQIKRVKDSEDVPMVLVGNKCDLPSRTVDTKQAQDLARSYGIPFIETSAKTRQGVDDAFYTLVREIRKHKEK

Structure (SMILES)	IC50 (KRas G12D)	IC50 [1]
CN(C)C(=O)OC[C@H]1CC[C@@]2(COc3nc(NCC4(N(C)C)CCC4)c4cnc(-c5cccc6cccc(Cl)c56)c(F)c4n3)CCCN12 [Example 51, ((3R,7aR)-7a-(((7-(8-chloronaphthalen-1-yl)-4-(((1-(dimethylamino)cyclobutyl)methyl)amino)-8-fluoropyrido[4,3-d]pyrimidin-2-yl)oxy)methyl)hexahydro-1H-pyrrolizin-3-yl)methyl dimethylcarbamate]	102 nM	> 16700 nM
CCc1cccc2cccc(-c3ncc4c(NCC5(N(C)C)CCC5)nc(OC[C@@]56CCCN5C[C@H](F)C6)nc4c3F)c12 [Example 21, N-((1-(dimethylamino)cyclobutyl)methyl)-7-(8-ethylnaphthalen-1-yl)-8-fluoro-2-(((2R,7aS)-2-fluorotetrahydro-1H-pyrrolizin-7a(5H)-yl)methoxy)pyrido[4,3-d]pyrimidin-4-amine]	59.2 nM	> 16700 nM
CCc1c(F)ccc2cc(O)cc(-c3ncc4c(NCC5(N(C)C)CCC5)nc(OC[C@]56CCCN5[C@@H](COC(=O)N(C)C)CC6)nc4c3F)c12 [Example 46, ((3R,7aR)-7a-(((4-(((1-(dimethylamino)cyclobutyl)methyl)amino)-7-(8-ethyl-7-fluoro-3-hydroxynaphthalen-1-yl)-8-fluoropyrido[4,3-d]pyrimidin-2-yl)oxy)methyl)hexahydro-1H-pyrrolizin-3-yl)methyl dimethylcarbamate]	0.7 nM	38.7 nM
CN(C)C1(CNc2nc(OC[C@]34CCCN3[C@@H](COC(=O)N3CCCCC3)CC4)nc3c(F)c(-c4cccc5cccc(Cl)c45)ncc23)CCC1 [Example 50, ((3R,7aR)-7a-(((7-(8-chloronaphthalen-1-yl)-4-(((1-(dimethylamino)cyclobutyl)methyl)amino)-8-fluoropyrido[4,3-d]pyrimidin-2-yl)oxy)methyl)hexahydro-1H-pyrrolizin-3-yl)methyl piperidine-1-carboxylate]	89.6 nM	10700 nM
NC1(CNc2nc(OC[C@@]34CCCN3C[C@H](F)C4)nc3c(F)c(-c4cc(O)cc5ccccc45)ncc23)CCC1 [Example 29, 4-(4-(((1-aminocyclobutyl)methyl)amino)-8-fluoro-2-(((2R,7aS)-2-fluorotetrahydro-1H-pyrrolizin-7a(5H)-yl)methoxy)pyrido[4,3-d]pyrimidin-7-yl)naphthalen-2-ol bis(2,2,2-trifluoroacetate)]	62.8 nM	1560 nM
CN[C@H]1C[C@@H](Nc2nc(OCC34CCCN3CCC4)nc3c(F)c(-c4cc(O)cc5ccccc45)ncc23)C1 [Example 17, 4-(8-fluoro-4-(((1s,3s)-3-(methylamino)cyclobutyl)amino)-2-((tetrahydro-1H-pyrrolizin-7a(5H)-yl)methoxy)pyrido[4,3-d]pyrimidin-7-yl)naphthalen-2-ol bis(2,2,2-trifluoroacetate)]	80.9 nM	> 16700 nM
C#Cc1c(F)ccc2cccc(-c3ncc4c(NCC5(N(C)C)CCC5)nc(OCC56CCCN5CCC6)nc4c3F)c12 [Example 56, N-((1-(dimethylamino)cyclobutyl)methyl)-7-(8-ethynyl-7-fluoronaphthalen-1-yl)-8-fluoro-2-((hexahydro-1H-pyrrolizin-7a-yl)methoxy)pyrido[4,3-d]pyrimidin-4-amine]	2.6 nM	350 nM
CCc1cccc2cc(O)cc(-c3ncc4c(NCC5(N(C)C)CCC5)nc(OC[C@]56CCCN5[C@@H](COC(=O)N(C)C)CC6)nc4c3F)c12 [Example 43, ((3R,7aR)-7a-(((4-(((1-(dimethylamino)cyclobutyl)methyl)amino)-7-(8-ethyl-3-hydroxynaphthalen-1-yl)-8-fluoropyrido[4,3-d]pyrimidin-2-yl)oxy)methyl)hexahydro-1H-pyrrolizin-3-yl)methyl dimethylcarbamate]	1.1 nM	53.5 nM
